From article PMC9080489, “Synthesis and biological evaluation of 2-aryl-benzimidazole derivatives of dehydroabietic acid as novel tubulin polymerization inhibitors” (RSC Advances, 2018) come the findings set out here.

In experiment [1] the test system is human breast cancer cell line (MDA-MB-231). In words: MTT cytotoxic assay, MDA-MB-231. The class given is cell-based. The conditions noted are these: MDA-MB-231, MTT, 48 h exposure, read-out: IC50 MDA-MB-231. How it is done:
The in vitro antiproliferative activity of DAA derivatives (1–5, 6a–k, 7a–k) were evaluated by MTT assay against human hepatocarcinoma cell line (SMMC-7721), human breast cancer cell line (MDA-MB-231), human cervical carcinoma cell line (HeLa), mouse colon cancer cell line (CT-26) and human normal hepatocyte cell line (QSG-7701). Nocodazole was co-assayed as the positive control and DMEM culture medium containing 0.1% DMSO was used as negative control. The results of the tested compounds expressed as IC50 values (concentration required to inhibit tumor cell proliferation by 50%) were presented in Table 1.
The human hepatocarcinoma cell line (SMMC-7721), human breast cancer cell line (MDA-MB-231), human cervical carcinoma cell line (HeLa), mouse colon cancer cell line (CT-26) and human normal hepatocyte cells (QSG-7701) used in this study were all obtained from Keygene Biotech., China. These cell lines were maintained in DMEM medium supplemented with 10% heat-inactivated fetal bovine serum in a humidified atmosphere of 5% CO2 at 37 °C.
The in vitro cytotoxic activities of the benzimidazole derivatives of dehydroabietic acid were evaluated against tested cell lines via the MTT colorimetric method. Briefly, different tumor cells were grown in DMEM medium supplemented with 10% fetal bovine serum, penicillin (100 U mL^−1), and streptomycin (50 μg mL^−1). Cells were harvested at log phase of growth and seeded in 96-well plates (100 μL per well at a density of 2 × 10^5 cells mL^−1). After 24 h incubation at 37 °C and 5% CO2 to allow cell attachment, cultures were exposed to various concentrations of the isolated compounds for 48 h. Finally, MTT solution (2.5 mg mL^−1 in PBS) was added (40 μL per well). Plates were further incubated for 4 h at 37 °C, and the formazan crystals formed were dissolved by adding 150 μL per well of DMSO. Absorption at 570 nm was measured with an ELISA plate reader. The results were expressed as IC50 values with standard deviations, which was defined as the concentration at which 50% survival of cells was discerned. Nocodazole was co-assayed as positive control.
A general note: Tetrazolium dyes change colour on reduction, which living cells bring about.

In another experiment the target is T1, Porcine brain tubulin (Sus scrofa, UniProt P02550+P02554).
T1 construct: purchased Cytoskeleton, Inc. BK004P; host or cells: porcine brain tissue
In words: In vitro tubulin polymerization inhibition assay (OD340). The class given is biochemical. The conditions noted are these: 37 °C, 1 h, versus blank control. Here is the method: The in vitro tubulin polymerization inhibition assay was carried out by using the Tubulin Polymerization Assay Kit (Cytoskeleton, Inc., USA) according to the protocol in the manual. Porcine brain tubulin was incubated with compound 6j at concentrations of 5 and 10 μM. The positive control colchicine and negative control taxol were co-assayed at the concentration of 10 μM, and G-PEM buffer was used as the blank control.
The tubulin polymerization assay was accomplished using a commercial assay kit (cat. #BK004P) purchased from Cytoskeleton, Inc. (Danvers, MA, USA). Tubulin isolated from porcine brain tissue was used in this tubulin polymerization assay kit. Tubulin polymerizations are followed by an increase in optical density at 340 nm (OD340) over a 60 min period at 37 °C due to the light scattered by microtubule polymer. At first, tubulin (4 mg) was disovled in 1 mL of G-PEM buffer containing 80 mM piperazine-N,N′-bis(2-ethanesulfonic acid) sequisodium salt (PIPES, pH 6.9), 2.0 mM MgCl2, 0.5 mM EGTA and 1 mM GTP to prepare tubulin solution. Subsequently, 10 μL of 10 × stock solutions of the tested compounds at different concentrations were added to a prewarmed 96-well plate and incubated at 37 °C for 2 min, then 90 μL of tubulin solution was also added into each well to initiate the reaction. The optical intensity (OD340) of each well was recorded every 60 s for 60 min (Cytation 3 Cell Imaging Multi-Mode Reader, BioTek Instruments, Inc., USA). Colchicine and taxol were co-assayed as the positive control and negative control, respectively. G-PEM buffer was used as the blank control.

A further experiment deals with SMMC-7721 cells. Nature of the experiment: JC-1 mitochondrial membrane potential assay. The class given is cell-based, human. The conditions noted are these: 24 h, control 6.47%. The text has this:
As the most important organelle, mitochondria play key roles not only on supplying metabolic energy in the form of ATP, but also on regulating the signal transmission during the apoptosis of cancer cells.[46] Besides, the mitochondrial dysfunction can be aroused under high ROS exposure, leading to the collapse of mitochondrial membrane potential (ΔΨm), which is a characteristic phenomenon of early apoptosis.[47] In order to further investigate the apoptosis-inducing effect of target compound 6j, mitochondrial membrane potential changes were detected using the fluorescent probe JC-1. As a lipophilic cationic dye, JC-1 can easily pass through the plasma membrane into cells and accumulates in actively respiring mitochondria. In control cells, JC-1 can form aggregates in mitochondrial matrix and present high red fluorescence. However, in apoptotic cells whose mitochondrial potential has collapsed, JC-1 exists in cytosol as a monomer which emits green fluorescence. SMMC-7721 cells treated with different concentrations (0, 0.1, 0.2, 0.5, 1.0 and 2.0 μM) of compound 6j for 24 h were stained with JC-1 and then subjected to flow cytometry.
The JC-1 mitochondrial membrane potential assay kit (Keygene Biotech., China) was employed to measure mitochondrial depolarization in SMMC-7721 cells. Briefly, cells cultured in six-well plates after indicated treatments were incubated with an equal volume of JC-1 staining solution (5 μg mL^−1) at 37 °C for 20 min and rinsed twice with PBS. Mitochondrial membrane potentials were monitored by determining the relative amounts of dual emissions from mitochondrial JC-1 monomers or aggregates using flow cytometry (Becton-Dickinson FACSCalibur, New York, USA). Mitochondrial depolarization is indicated by an increase in the percentage of cells with low ΔΨm (green fluorescence, lower right quadrant) compared with cells with high ΔΨm (red fluorescence, upper right quadrant).

T1 sequence (P02554 whole entry): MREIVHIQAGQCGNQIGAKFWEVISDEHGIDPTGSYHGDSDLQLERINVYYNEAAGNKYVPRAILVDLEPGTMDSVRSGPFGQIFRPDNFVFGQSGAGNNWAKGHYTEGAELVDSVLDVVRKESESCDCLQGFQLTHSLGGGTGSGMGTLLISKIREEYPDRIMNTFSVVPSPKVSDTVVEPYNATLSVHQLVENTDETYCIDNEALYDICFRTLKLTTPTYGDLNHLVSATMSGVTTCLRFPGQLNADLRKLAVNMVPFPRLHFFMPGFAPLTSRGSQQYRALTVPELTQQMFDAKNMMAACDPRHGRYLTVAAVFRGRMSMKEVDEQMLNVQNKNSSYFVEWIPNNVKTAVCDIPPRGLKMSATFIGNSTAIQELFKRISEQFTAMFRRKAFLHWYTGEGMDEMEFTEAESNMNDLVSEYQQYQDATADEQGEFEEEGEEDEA
T1 sequence (P02550 whole entry): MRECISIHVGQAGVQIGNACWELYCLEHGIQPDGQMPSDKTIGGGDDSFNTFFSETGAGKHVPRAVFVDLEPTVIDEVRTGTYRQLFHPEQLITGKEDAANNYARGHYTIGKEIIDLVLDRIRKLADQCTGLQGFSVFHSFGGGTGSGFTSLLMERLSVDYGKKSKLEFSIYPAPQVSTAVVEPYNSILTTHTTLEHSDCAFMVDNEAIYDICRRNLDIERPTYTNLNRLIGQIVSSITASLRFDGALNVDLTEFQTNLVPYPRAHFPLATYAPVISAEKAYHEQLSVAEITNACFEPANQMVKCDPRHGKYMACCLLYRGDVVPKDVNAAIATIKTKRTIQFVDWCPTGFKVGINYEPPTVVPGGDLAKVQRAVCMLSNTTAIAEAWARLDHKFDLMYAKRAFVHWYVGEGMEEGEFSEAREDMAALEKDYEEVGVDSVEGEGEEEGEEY

In the case of `COC(=O)[C@]1(C)CCC[C@]2(C)c3cc(Br)c4nc(-c5ccc6[nH]ccc6c5)[nH]c4c3CCC12` (some centres unmarked) [Compound 6j, Methyl 2′-(1H-indol-5-yl)-12-bromo-13,14-imidazolyl-deisopropyl-dehydroabietate], in experiment [1], the IC50 came out at 190 ± 40 nM. Besides, the “effect on tubulin polymerization speed and final absorbance (OD340)” value at Porcine brain tubulin (10 μM) is “stronger than colchicine”; on Porcine brain tubulin (5 and 10 μM), “substantially decreased the polymerization speed and the final absorbance in a dose-dependent manner”. Also, the “percentage of cells with low ΔΨm (lower right quadrant)” value in the experiment with SMMC-7721 cells (0.1 μM) was determined as 11.35%; in the experiment on SMMC-7721 cells (0.2 μM), 15.66%; in the experiment with SMMC-7721 cells (0.5 μM) it was 20.16%; in the experiment with SMMC-7721 cells (1.0 μM) it was 31.30%; with SMMC-7721 cells (2.0 μM) it was 53.12%.

Usually IC50 stands for the concentration that gives 50% inhibition.
